Among the data in paper PMC6683142, “The lipid-dependent structure and function of LacY can be recapitulated and analyzed in phospholipid-containing detergent micelles” (Scientific Reports, 2019) are Kd values, retold here.

The target in this assay is T1, lactose permease (LacY) (Escherichia coli, UniProt P02920, C154G).
T1 construct: LacY with all six native Trp residues and a C-terminal His6-Tag, DDM-solubilized, purified from PE-containing cells (correct topology)
T1 sequence (P02920 1-417 C154G): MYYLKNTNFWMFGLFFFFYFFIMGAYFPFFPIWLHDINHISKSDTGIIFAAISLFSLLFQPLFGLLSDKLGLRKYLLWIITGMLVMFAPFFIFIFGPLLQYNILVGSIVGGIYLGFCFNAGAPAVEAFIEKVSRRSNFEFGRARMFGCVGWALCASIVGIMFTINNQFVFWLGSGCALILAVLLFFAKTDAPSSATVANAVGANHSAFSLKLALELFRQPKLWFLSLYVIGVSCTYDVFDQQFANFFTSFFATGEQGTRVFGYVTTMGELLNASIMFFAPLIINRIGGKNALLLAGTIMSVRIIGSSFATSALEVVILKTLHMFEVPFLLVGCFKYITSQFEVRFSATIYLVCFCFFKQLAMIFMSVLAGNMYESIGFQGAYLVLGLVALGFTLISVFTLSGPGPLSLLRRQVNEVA
The experiment in a line: Trp → α-NPG FRET (quenching of W151) on purified protein in DDM micelles. In kind it is binding.

As usually defined, the Kd is a measure of binding affinity in units of concentration. Low values mean tighter binding, high ones weaker binding. `O=[N+]([O-])c1ccc(O[C@H]2O[C@H](CO)[C@H](O)[C@H](O)[C@H]2O)cc1` [α-NPG] came in with a Kd of 5.9 µM.
